Among the data in ChEMBL document CHEMBL1131105, “Anthracene-9,10-diones as potential anticancer agents: bacterial mutation studies of amido-substituted derivatives reveal an unexpected lack of mutagenicity” (1998) are Slope values, retold here.

Common to all, as to type: functional, Salmonella enterica subsp. enterica serovar Typhimurium
In test [1] the test system is Salmonella typhimurium. The test is described as follows: Bacterial mutagenicity was measured against Salmonella Typhimurium TA1538 at dose range of 0-200 ug/plate.
For test [2], the system named is Salmonella typhimurium. Description: Bacterial mutagenicity was measured against Salmonella Typhimurium TA97a at dose range of 0-400 ug/plate.
In test [3] the test system is Salmonella typhimurium. The test is described as follows: Bacterial mutagenicity was measured against Salmonella Typhimurium TA98 at dose range of 0-20 ug/plate.
Test [4] deals with Salmonella typhimurium. Description: Bacterial mutagenicity was measured against Salmonella Typhimurium TA98 at dose range of 0-10 ug/plate.
For test [5], the system named is Salmonella typhimurium. The test is described as follows: Bacterial mutagenicity was measured against Salmonella Typhimurium TA1538 at dose range of 0-5 ug/plate.

With `C(=N\NC1=NCCN1)/c1c2ccccc2c(/C=N/NC2=NCCN2)c2ccccc12` [BISANTRENE], the Slope in test [1] is 0.2 mutants ug-1; in test [2], 1.83 mutants ug-1; in test [3], 0.33 mutants ug-1.
As for `O=C1c2c(O)ccc(O)c2C(=O)c2c(NCCNCCO)ccc(NCCNCCO)c21` [MITOXANTRONE], the Slope came out at 3.04 mutants ug-1 in test [4], 0.01 mutants ug-1 in test [2] and 3.52 mutants ug-1 in test [5].
